Several values for one entry are separate records, joined by “and”; a condition that tells them apart may be missing. Equal entries are not always repeated. ± gives the expanded uncertainty stated by the source.
Conditions: Liquid

Row | Structure (SMILES) | vapor or sublimation pressure (293.15 K) | vapor or sublimation pressure (293.33 K) | vapor or sublimation pressure (293.34 K) | vapor or sublimation pressure (303.15 K) | vapor or sublimation pressure (303.35 K) | vapor or sublimation pressure (313.15 K) | vapor or sublimation pressure (313.37 K) | vapor or sublimation pressure (323.15 K) | vapor or sublimation pressure (323.39 K) | vapor or sublimation pressure (333.15 K) | vapor or sublimation pressure (333.39 K) | vapor or sublimation pressure (343.15 K) | vapor or sublimation pressure (343.42 K) | vapor or sublimation pressure (353.15 K) | vapor or sublimation pressure (353.43 K) | vapor or sublimation pressure (363.15 K) | vapor or sublimation pressure (363.43 K)
1 | CC(O)c1ccccc1 (stereo not given) [1-phenylethanol] | 0.006 ± 0.006 kPa | 0.009952 ± 0.0035 kPa | 0.009956 ± 0.0035 kPa | 0.016 ± 0.007 kPa | 0.02451 ± 0.0047 kPa and 0.0219 ± 0.0046 kPa | 0.041 ± 0.009 kPa | 0.06281 ± 0.0061 kPa and 0.06414 ± 0.0062 kPa | 0.095 ± 0.014 kPa | 0.1472 ± 0.013 kPa and 0.136 ± 0.013 kPa and 0.1419 ± 0.013 kPa | 0.203 ± 0.021 kPa | 0.2635 ± 0.016 kPa and 0.2649 ± 0.016 kPa | 0.404 ± 0.033 kPa | 0.515 ± 0.022 kPa and 0.5189 ± 0.022 kPa | 0.759 ± 0.055 kPa | 0.902 ± 0.032 kPa and 0.9053 ± 0.032 kPa | 1.352 ± 0.079 kPa | 1.556 ± 0.041 kPa
2 | O [water] | 2.333 ± 0.091 kPa | – | – | 4.24 ± 0.12 kPa | – | 7.376 ± 0.15 kPa | – | 12.34 ± 0.22 kPa | – | 19.92 ± 0.31 kPa | – | 31.17 ± 0.45 kPa | – | 47.38 ± 0.66 kPa | – | 70.18 ± 0.94 kPa | –
